Experimental data published in ChEMBL document CHEMBL1201862, “PubChem BioAssay data set” (2004).
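Cultured in 96-well plates, cells were exposed to test compound for 48 hours across five concentrations. GI50 marks 50% less growth.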 Calls of active or inactive are those of the source. Cut-off read from the data, not from the text of the source: active = GI50 up to about 1.1 µM and inactive = higher.

Tests used:
Assay in all cases: NCI-60 cell line screen, 48 h
A498 = test system: A498
NCI/ADR-RES = test system: NCI/ADR-RES
RPMI-8226 = test system: RPMI-8226
KM12 = test system: KM12
SW-620 = test system: SW-620
M14 = test system: M14
SF-539 = test system: SF-539
MOLT-4 = test system: MOLT-4
Hs-578T = test system: Hs-578T
COLO 205 = test system: COLO 205
OVCAR-8 = test system: OVCAR-8
SK-OV-3 = test system: SK-OV-3
A549 = test system: A549
SN12C = test system: SN12C
NCI-H226 = test system: NCI-H226
SF-295 = test system: SF-295
786-0 = test system: 786-0
NCI-H460 = test system: NCI-H460
HT-29 = test system: HT-29
K562 = test system: K562

Measured: GI50

COc1cc2c(cc1OC)C1C(O)C(OC)C=C3CC[N+](C)(C2)C31 (stereo not drawn)
inactive: A498 > 100 µM | NCI/ADR-RES > 100 µM | RPMI-8226 > 100 µM | KM12 > 100 µM | SW-620 > 100 µM | M14 > 100 µM | SF-539 > 100 µM | MOLT-4 > 100 µM | Hs-578T > 100 µM | COLO 205 > 100 µM | OVCAR-8 > 100 µM | SK-OV-3 > 100 µM | A549 > 100 µM | SN12C > 100 µM | NCI-H226 > 100 µM | SF-295 > 100 µM | 786-0 > 100 µM | NCI-H460 > 100 µM | HT-29 > 100 µM

C(=N\Nc1nnc(-c2nnc(N/N=C/c3ccccc3)o2)o1)/c1ccccc1
inactive: A498 > 10 µM | NCI/ADR-RES > 10 µM | RPMI-8226 > 10 µM | KM12 > 10 µM | SW-620 > 10 µM | M14 > 10 µM | SF-539 > 10 µM | MOLT-4 > 10 µM | Hs-578T 6.19 µM | COLO 205 > 10 µM | OVCAR-8 > 10 µM | A549 > 10 µM | SN12C > 10 µM | K562 > 10 µM | NCI-H226 > 10 µM | SF-295 > 10 µM | 786-0 > 10 µM | NCI-H460 > 10 µM | HT-29 > 10 µM

O=c1ccc2c(Cl)cccc2o1
inactive: A498 > 100 µM | NCI/ADR-RES > 100 µM | RPMI-8226 > 100 µM | KM12 > 100 µM | SW-620 > 100 µM | M14 > 100 µM | SF-539 > 100 µM | MOLT-4 > 100 µM | Hs-578T 75.5 µM | COLO 205 > 100 µM | OVCAR-8 > 100 µM | A549 > 100 µM | SN12C > 100 µM | K562 > 100 µM | NCI-H226 > 100 µM | SF-295 > 100 µM | 786-0 > 10 µM | NCI-H460 > 100 µM | HT-29 > 10 µM

Cc1cc(C)n(CN(CCCCO)Cn2nc(C)cc2C)n1
inactive: A498 > 100 µM | NCI/ADR-RES 18.2 µM | RPMI-8226 3.21 µM | KM12 23 µM | SW-620 21.7 µM | M14 18.5 µM | SF-539 18.6 µM | MOLT-4 14.2 µM | Hs-578T > 100 µM | COLO 205 17.2 µM | OVCAR-8 19.2 µM | SK-OV-3 > 100 µM | A549 49.2 µM | SN12C 26 µM | K562 19.9 µM | SF-295 > 100 µM | 786-0 14.8 µM | NCI-H460 52.7 µM | HT-29 17.9 µM

O=C1Nc2ccccc2/C1=C1\C(=O)Nc2ccccc21 [ISOINDIGO]
inactive: A498 20.9 µM | NCI/ADR-RES 17.3 µM | RPMI-8226 17.3 µM | KM12 21.6 µM | SW-620 4.57 µM | M14 32.1 µM | MOLT-4 3.59 µM | Hs-578T 49.2 µM | COLO 205 21.9 µM | OVCAR-8 18.8 µM | SK-OV-3 59.7 µM | A549 27.4 µM | SN12C 19 µM | K562 7.48 µM | NCI-H226 > 100 µM | SF-295 60.3 µM | 786-0 9.42 µM | NCI-H460 21.6 µM | HT-29 4.98 µM

COC1(O)C(=O)c2ccccc2OC1(OC)c1ccccc1 (stereo not drawn)
inactive: A498 > 100 µM | NCI/ADR-RES 77.8 µM | RPMI-8226 > 100 µM | SW-620 > 100 µM | M14 > 100 µM | SF-539 > 100 µM | MOLT-4 75.2 µM | Hs-578T > 100 µM | COLO 205 > 100 µM | OVCAR-8 > 100 µM | A549 > 100 µM | SN12C > 100 µM | K562 42 µM | NCI-H226 > 100 µM | SF-295 > 100 µM | 786-0 > 100 µM | NCI-H460 40.4 µM | HT-29 > 100 µM

Oc1ccc([I+]c2ccccc2)cc1O
inactive: A498 > 100 µM | NCI/ADR-RES 28.9 µM | RPMI-8226 12 µM | KM12 24.8 µM | SW-620 18.1 µM | SF-539 29.2 µM | MOLT-4 21.9 µM | Hs-578T 48.6 µM | COLO 205 34.4 µM | OVCAR-8 53.3 µM | A549 24.9 µM | SN12C 40.5 µM | K562 21.6 µM | NCI-H226 > 100 µM | SF-295 73.8 µM | 786-0 65 µM | NCI-H460 23.3 µM | HT-29 37.4 µM

CC1CCOc2ccc(cc2)/C=N\c2ccc(cc2)CCc2ccc(cc2)/N=C\c2ccc(cc2)OCC1
inactive: A498 > 100 µM | NCI/ADR-RES > 100 µM | RPMI-8226 > 100 µM | KM12 > 100 µM | SW-620 > 100 µM | M14 > 100 µM | SF-539 > 100 µM | MOLT-4 > 100 µM | Hs-578T > 100 µM | COLO 205 > 100 µM | OVCAR-8 > 100 µM | A549 > 100 µM | SN12C > 100 µM | K562 > 100 µM | NCI-H226 > 100 µM | SF-295 70.3 µM | 786-0 > 100 µM | NCI-H460 > 100 µM | HT-29 > 100 µM

Cc1ccc(S(=O)(=O)N2CCCSCCSCCCN(S(=O)(=O)c3ccc(C)cc3)CC2)cc1
inactive: A498 > 100 µM | NCI/ADR-RES > 100 µM | RPMI-8226 > 100 µM | KM12 > 100 µM | SW-620 > 100 µM | M14 > 100 µM | SF-539 > 100 µM | MOLT-4 > 100 µM | Hs-578T > 100 µM | COLO 205 > 100 µM | OVCAR-8 > 100 µM | SK-OV-3 > 100 µM | A549 > 100 µM | SN12C > 100 µM | NCI-H226 > 100 µM | SF-295 > 100 µM | 786-0 > 100 µM | NCI-H460 > 100 µM | HT-29 > 100 µM

Nc1ncnc2c1ncn2C1OC(CO)C(O)C(O)C1O (stereo not drawn)
inactive: A498 > 100 µM | NCI/ADR-RES > 100 µM | RPMI-8226 > 100 µM | KM12 > 100 µM | SW-620 > 100 µM | M14 > 100 µM | SF-539 > 100 µM | MOLT-4 > 100 µM | Hs-578T > 100 µM | COLO 205 > 100 µM | OVCAR-8 > 100 µM | A549 > 100 µM | SN12C > 100 µM | K562 > 100 µM | NCI-H226 > 100 µM | SF-295 > 100 µM | 786-0 > 100 µM | NCI-H460 > 100 µM | HT-29 > 100 µM
